Consider 1 compound from article PMC6940745 (International Journal of Molecular Sciences, 2019).

Each structure is given as a SMILES string. Where a SMILES comes first, the peptide text is derived from it. [ ]: non-standard residue; d: D form. The star is where a group is joined. Bz = O=C(c1ccccc1)*; NPr2 = CCCN(CCC)*

What is called EC50 is the midpoint of the concentration-response curve.

The target of one assay is T1, MC3R (Homo sapiens, UniProt P41968).
T1 construct: host or cells: CHO-K1
In words: MC3R activation, cAMP HTRF assay in CHO-K1 cells. It is filed as cell-based. The settings on record: eight concentrations, 0.01 to 100,000 nM. As for the experimental part:
(§1) MCR-activation assays were performed by means of a cAMP HTRF (homogeneous time resolved fluorescence) assay for Gs-coupled receptors (cAMP Gs dynamic kit, Cisbio bioassays, 62AM4PEC). CHO-K1 cells expressing human recombinant MC1 receptor (EuroscreenFast, Gosselies, Belgium) (or MC2R, MC3R, MC4R, MC5R) were grown prior to the test in media without antibiotic. They were detached by gentle flushing with PBS-EDTA (5 mM EDTA), recovered by centrifugation, and resuspended in assay buffer (5 mM KCl, 1.25 mM MgSO4, 124 mM NaCl, 25 mM HEPES, 13.3 mM Glucose, 1.25 mM KH2PO4, 1.45 mM CaCl2, 0.5 g/L BSA, supplemented with 1 mM IBMX). Dose response curves were performed in parallel with the reference compounds. For agonist test (96-well), 12 µL of cells were mixed with 12 µL of the test compound diluted at increasing concentrations in assay buffer, and then incubated for 30 min at room temperature. After addition of the lysis buffer and 1 h incubation, fluorescence signal was measured, according to the manufacturer’s specifications, with the homogeneous time resolved fluorescence (HTRF) kit.
A general note: TR-FRET usually uses a lanthanide donor and a delayed reading to cut background.

The next assay deals with T2, MC5R (Homo sapiens, UniProt P33032).
T2 construct: host or cells: CHO-K1
T2 sequence (P33032 whole entry): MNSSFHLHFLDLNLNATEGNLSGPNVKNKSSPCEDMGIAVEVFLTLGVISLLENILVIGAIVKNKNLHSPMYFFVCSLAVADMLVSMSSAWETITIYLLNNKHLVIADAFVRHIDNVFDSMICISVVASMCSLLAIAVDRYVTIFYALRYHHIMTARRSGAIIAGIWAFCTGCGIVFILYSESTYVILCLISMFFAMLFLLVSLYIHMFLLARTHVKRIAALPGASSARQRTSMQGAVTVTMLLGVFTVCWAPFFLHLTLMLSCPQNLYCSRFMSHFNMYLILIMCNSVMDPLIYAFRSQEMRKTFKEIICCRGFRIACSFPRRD
Briefly: MC5R activation, cAMP HTRF assay in CHO-K1 cells. Format: cell-based. The method, then: as §1

The next assay concerns the target human MCH1R (Homo sapiens, UniProt Q99705). In words: MCH1R activation, Aequorin assay. Conditions: eight concentrations, 0.01 to 100,000 nM. It is filed as cell-based. The method, then: Melanin-concentrating hormone receptor (MCHR), endothelin-1 receptor (ETBR), and serotonin-receptor (5-HT2AR) assays were performed by means of Aequorin assays. Recombinant cells co-expressing human MCH1R, MCH2R, ETBR, or 5-HT2AR and mitochondrial apoaequorin (MCH1R, MCH2R and 5-HT2AR cells also co-express recombinant Gα16 protein) (EuroscreenFast, Gosselies, Belgium), grown 18 h prior to the test in media without antibiotics, were detached by gentle flushing with PBS-EDTA (5 mM EDTA), recovered by centrifugation, and resuspended in assay buffer (DMEM/HAM’s F12 with HEPES + 0.1% BSA protease free). Cells were incubated under agitation at room temperature for at least 4 h with Coelenterazine h (Promega, X300X, 0.5 µM final concentration). Dose response curves with the reference compounds were performed before testing the compounds. For agonist testing, 50 µL of cell suspension was injected on 50 µL of test compound or reference agonist diluted in assay buffer and plated in a 96-well plate. The resulting emission of light was recorded using the Hamamatsu Functional Drug Screening System 6000 (FDSS 6000). […] Agonist activity of test compound was expressed as a percentage of the activity of the reference agonist at its EC100 concentration.

For assay [1], the system named is human abdominal skin ex vivo. Briefly: Stimulation of pigmentation in human abdominal skin ex vivo (Fontana-Masson melanin quantification). Format: cell-based. Conditions: topical. The method, then:
Following declaration of Helsinki principles (DoH-Oct2013, World Medical Association, Ferney-Voltaire, France), human skin samples were obtained from elective plastic surgery after informed consent was obtained. For the two experiments shown in Figure 2, Figure 3 and Figure 4, we had one person with an individual topology angle (ITA°) of 18, and one person with an ITA° of 39 [69]. The skin samples were cut in pieces of 8 × 3 mm and cultured up to day 6. Skin samples were cultured in an air–liquid interface in a perforated ring of stainless steel in contact with culture medium (modified Williams’ E medium). The culture medium was renewed every three days (i.e., day 0–3). Compounds were added daily in DMSO at 4 µL volume. At day 6, the skin samples were fixed in formalin, embedded in paraplast, and cut at the microtome for histochemical staining and consequent image analysis. Six skin biopsies were used for each single treatment.
Two skin biopsies for each treatment were weighed and, in each case, reduced in the dermal portion, in order to have approximately the same weight for all of them. Samples were then washed and processed with methylthiazolyldiphenyl-tetrazolium bromide (MTT). The color intensity, that is directly proportional to skin vitality, was measured with a plate reader at a wavelength of 570 nm. For melanin quantification, skin sections were stained with a modified Fontana-Masson stain that dyes melanin argentaffin granules in black/dark grey. The amount of melanin present in each slide was evaluated by estimating grey intensity and distribution within the sections using ImageJ application (NIH-USA). Two slides of each skin sample were processed by image acquisition and related analysis (i.e., 12 images for each treatment).
Figure 2 Stimulation of pigmentation by MC1R-agonist peptides ex vivo. Melanin was quantified on skin sections using ImageJ software (NIH, USA). Human abdominal skin was topically treated with peptides at various concentrations for six days. * p < 0.05 vs vehicle by unpaired Student’s t-test. […]

Assay [2] deals with B16 murine melanoma cells. Briefly: Total melanin synthesis in mouse melanoma cells. It is filed as cell-based. The settings on record: 72 h incubation. As for the experimental part: B16 murine melanoma cells, which are highly responsive towards stimulation with alpha-melanocyte stimulating hormone (alpha-MSH), were grown in Dulbecco’s modified eagle medium (DMEM) with 1 g/L glucose supplemented with 3 g/L glucose, 2 mM L-glutamine, 50 U/mL Penicillin, 50 µg/mL Streptomycin, and 10% fetal calf serum. They were kept at 37 °C in a 5% CO2 atmosphere. Cells were grown for 24 h and then medium was replaced with medium containing the test or reference (NDP-alpha-MSH) compounds. After 72 h, total (intracellular and extracellular) melanin content was determined by absorbance spectroscopy at 405 nm. The results were quantified against a melanin standard curve.
Figure 1 Total melanin synthesis in mouse melanoma cells stimulated with MC1R-agonist peptides. MC1R-agonist peptides were incubated at various concentrations together with the near confluent mouse melanoma cell line B16F10. NDP-alpha-MSH at 100 nM was used as the reference and set to 100% melanin (red line). Error bars represent standard error of the mean of three experiments.

For the next assay, the system named is MC1R. In words: MC1R expression in ex vivo epidermis in the presence of UVA. Format: cell-based, human. The settings on record: ex vivo epidermis in the presence of UVA (Figure S1).

human MCH1R, sequence (Q99705 whole entry): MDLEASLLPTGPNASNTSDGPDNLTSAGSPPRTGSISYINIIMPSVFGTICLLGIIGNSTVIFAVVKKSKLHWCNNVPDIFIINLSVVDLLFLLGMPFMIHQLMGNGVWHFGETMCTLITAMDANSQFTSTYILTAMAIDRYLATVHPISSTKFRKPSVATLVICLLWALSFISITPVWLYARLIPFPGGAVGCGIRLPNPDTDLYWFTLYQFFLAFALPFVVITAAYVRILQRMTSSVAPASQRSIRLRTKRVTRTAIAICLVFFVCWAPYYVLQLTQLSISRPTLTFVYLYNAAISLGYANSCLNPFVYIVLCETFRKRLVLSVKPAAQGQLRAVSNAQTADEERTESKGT
T1 sequence (P41968 whole entry): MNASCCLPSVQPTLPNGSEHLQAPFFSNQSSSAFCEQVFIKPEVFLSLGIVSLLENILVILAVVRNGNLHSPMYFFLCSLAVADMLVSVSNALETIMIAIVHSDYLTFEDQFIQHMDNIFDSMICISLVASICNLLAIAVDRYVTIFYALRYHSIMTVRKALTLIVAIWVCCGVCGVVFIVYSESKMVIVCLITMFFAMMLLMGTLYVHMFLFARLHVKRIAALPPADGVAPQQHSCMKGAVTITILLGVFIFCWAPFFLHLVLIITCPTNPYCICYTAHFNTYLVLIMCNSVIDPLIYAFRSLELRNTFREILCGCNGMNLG

For the compound `CCCN(CCC)C(=O)[C@@H](Cc1c[nH]c2ccccc12)NC(=O)[C@H](CCCNC(=N)N)NC(=O)[C@@H](Cc1ccccc1)NC(=O)[C@H](Cc1c[nH]cn1)NC(=O)CNC(=O)c1ccccc1` [Peptide 4] (Bz-GH[dF]R[dW]-NPr2), the EC50 was 0.877 µM on MC3R; greater than 100 µM at MC5R (eight concentrations, 0.01 to 100,000 nM); greater than 100 µM on human MCH1R. Besides, the “Activation of MC5R” value at MC5R (up to 100 µM) is “no significant activation”. Moreover, the “Stimulation of pigmentation compared to vehicle-treated control tissue” value in assay [1] (200 µM peptide, six days) is listed as “up to 21%”. Besides, the “Concentration of optimal activity for pigmentation enhancement” value in assay [1] (human abdominal skin ex vivo) came out at 30 µM. In addition, the “Concentration at which maximal melanin synthesis activity comparable to 100 nM NDP-alpha-MSH is reached” value in assay [2] is “around 12.3 nM”. Moreover, the “Influence on expression of MC1R” value in the assay with MC1R was “no influence”.
